Experimental data taken from ChEMBL document CHEMBL3507680, “University of Dundee, Gates Library screen for HepG2 cell viability”.

Assay: Human HepG2 cell viability assay in 384 well format
Type: toxicity, cell-based
Design: dose 125 nL, time 70.5 hour; concentration not given beside the values
Conditions: HepG2 cells, read-out: Inhibition

Row | Compound | cytotoxicity at 70.5 h [%]
1 | Cc1cccc(CNC(=O)C2CCC(=O)N(Cc3ccccc3F)C2)n1 (centres undefined) | -9.23
2 | Cc1nn(C)c2nc(N3CCC(C(O)c4ccccn4)CC3)sc12 (centres undefined) | -0.933
3 | CN1CC2(CCN(C(=O)Cn3ncc4ccccc4c3=O)CC2)OC1=O | -13.8
4 | C=C(C)COc1cccc(CN(C)C(C)c2nccs2)c1 (centres undefined) | -4
5 | CN(Cc1n[nH]c2c1CCCC2)c1cc(N2CCOCC2)nc(N)n1 | -8.11
6 | Cc1cccc(CN2CCN(C(=O)c3cnc(C)[nH]c3=O)CC2)c1 | 12.7
7 | Cc1cc(C)c2c(N3CCN(CCN4CCOCC4)CC3)ncnc2n1 | 16.3
8 | COc1ccccc1OC1(C(=O)O)CCN(c2ncccc2F)CC1 | -7.34
9 | O=C(O)CCc1cc2n(n1)CCCN(C(=O)c1ccc(F)cc1F)C2 | -0.277
10 | Cc1cc(NC(C)c2n[nH]c(C)n2)n2nc(C)c(C)c2n1 (centres undefined) | 20
11 | Cc1cccc(-n2cc(CNc3ncnc4c3CCNCC4)cn2)c1 | -10.3
12 | CN(C)C(=O)CCC1CCCN(Cc2cccc(-c3ccccn3)c2)C1 (centres undefined) | 12.2
13 | NC(=O)c1cccnc1N1C[C@@H]2CC[C@H](C1)N(Cc1ccccn1)C2=O | 5.12
14 | Cc1cc(C)c2[nH]c(C(=O)NCCN3CCCC3=O)c(C)c2c1 | 23.6
15 | COc1ccc2c(c1)CC(C(=O)N(C)CCCc1cnn(C)c1)CO2 (centres undefined) | -8.48
16 | CN1C[C@@H](N)C[C@H]1C(=O)N1CCC(CCCc2ccccc2)CC1 | -0.968
17 | Cc1nc2c(c(N3CCC(O)(CN4CCCC4)CC3)n1)CCN(C)CC2 | -3.57
18 | Cc1cccc2[nH]c(COCC(=O)N3CCCn4cncc4C3)nc12 | -6.34
19 | CCN(Cc1nccn1C)C(=O)c1ccc(NCc2ccccc2)nc1 | -2.21
20 | O=C(O)c1cnc(-c2cccc3c2CCNC3)c(Cl)c1 | -11.1
21 | CCNC(=O)[C@@H]1C[C@@H](NC(=O)CSC)CN1Cc1ccncc1 | -10.5
22 | COc1ccc(Oc2cccnc2)cc1CN1CCCC1 | 28.5

Row | Compound | cytotoxicity at 70.5 h [%]
23 | NC(=O)c1ccc(C2CCCN2C(=O)CCn2nnc3ccccc32)s1 (centres undefined) | -4.98
24 | CCC[C@H]1CN(Cc2ccccc2C#N)C[C@@H]1NS(C)(=O)=O | -6.89
25 | COCc1cc(CNCc2c(C)n(CC(C)C)c3ccccc23)n[nH]1 | -11
26 | Cc1ccccc1CN1CCC(CNc2ncnc3c2CCNCC3)C1 (centres undefined) | 1.87
27 | CN(C)c1ccnc(-c2ccnc3c2ccn3C)n1 | -5.41
28 | CC(C)[C@H]1CN(Cc2c[nH]nn2)C[C@@H]1NC(=O)C1CCOCC1 | -0.972
29 | Cc1cc2nc(C(=O)NCc3cccnc3N(C)C)cc(C)n2n1 | 3.6
30 | CN1CC2(CCN(C(=O)c3coc4c3C(=O)CCC4)C2)OC1=O (centres undefined) | -6.28
31 | COCC(C)N1CCc2onc(-c3ccc(F)c(F)c3)c2C1 (centres undefined) | -1.71
32 | O=C(Cn1ccc(=O)cc1)N1C[C@H]2CC[C@@H]1CN(c1ncccn1)C2 | -8.59
33 | O=C(N1CCOCC1)N1CCc2[nH]nc(COc3cccc(Cl)c3)c2C1 | -2.78
34 | CC(=O)N1CCCN(C(C(=O)O)c2cccc(C)c2C)CC1 (centres undefined) | -12.3
35 | Cc1ccc(C(=O)N2CCc3ncccc3C2)cc1N1CCNC1=O | 0.999
36 | CO[C@H]1C[C@@H](O)C12CCN(CCOc1ccc(Cl)cc1)CC2 | -1.42
37 | CC(C)N(Cc1nc(-c2cccs2)no1)CC1CCC(=O)N1 (centres undefined) | -11.1
38 | Cc1nccc(N[C@H]2CN(CCC(=O)NC3CCCC3)C[C@@H]2C2CC2)n1 | -2.83
39 | CC(C)=CCN1CC2(CCN(Cc3ncc[nH]3)CC2)CC1=O | 11.6
40 | Cc1cc(-c2cnn(C)c2)ccc1OCC(N)=O | -2.62
41 | COc1ccc(C(C(=O)O)N(C)CCN2CCCC2)cc1F (centres undefined) | -9.88
42 | CCn1nc(CC(C)C)cc1C(=O)N1CCN([C@H]2CCCC[C@@H]2O)CC1 | -2.99
43 | COc1cc(CN2CCCC(Nc3cccc(F)c3)C2)cc(Cl)c1O (centres undefined) | 6.37
44 | Cc1cc(C)c2[nH]c(C(=O)NCCN3CCOC3=O)c(C)c2c1 | 1.29

Row | Compound | cytotoxicity at 70.5 h [%]
45 | CN(CCO)C[C@@H]1CN(C(=O)c2cccc(OC(F)F)c2)C[C@@H]1CO | -5.3
46 | COCC(Nc1nc(N(C)C)nc2c1CCNCC2)c1ccccn1 (centres undefined) | 4.09
47 | c1cn(-c2ccc(CN3CCCC3)cc2)c(-c2cc3n(n2)CCNC3)n1 | -6.8
48 | OC1(CNCCc2csc(-c3ccncc3)n2)CCCNC1 (centres undefined) | -5.37
49 | CN(Cc1cnccn1)C(=O)c1ccc(CSc2nnc[nH]2)o1 | -20.7
50 | COCC(c1ccccn1)N(C)C(=O)c1cc(-c2cccn2C)n[nH]1 (centres undefined) | -10.6
51 | Cc1cc(CNCC2(O)CCCN(CCCc3ccccc3)C2=O)n[nH]1 (centres undefined) | -5.17
52 | c1cncc(CN(Cc2ccsc2)Cc2ccc(C3CCCCO3)o2)c1 (centres undefined) | 6.4
53 | O=C(c1cc(COc2ccc3c(c2)OCO3)[nH]n1)N1CCSCC1 | -0.532
54 | O=C(CN1CCOC1=O)N1CCC2(CCc3ccccc32)CC1 | 7.69
55 | Cc1cnc(C(=O)N2CC(=O)N(c3ccccc3Cl)CC2C)cn1 (centres undefined) | -6.52
56 | Cc1nc(C(C)C)sc1CNC(=O)CCCN1CCCCC1 | 30.6
57 | CN1CCc2[nH]nc(C(=O)N3CCC4(CN(C)C(=O)O4)C3)c2C1 (centres undefined) | -6.62
58 | O=C(CN1CC(c2ccccc2)CC1=O)N1CCC(c2ncc[nH]2)CC1 (centres undefined) | -4.48
59 | Cc1ncsc1CCC(=O)N1CCCC1c1cccnc1 (centres undefined) | -6.95
60 | Cc1cccc(C)c1OC1CN(Cc2cnc(N3CCOCC3)nc2)C1 | -7
61 | CSc1ccc(C(=O)C2CCCN(C(=O)CCn3cnnn3)C2)cc1 (centres undefined) | 14.5
62 | O=C(c1cc(-c2ccco2)nc2c(Cl)cccc12)N1C[C@H]2CNC[C@H]2C1 | -6.09
63 | c1ccc2sc(N3CCCC4(CCOC4)C3)nc2c1 (centres undefined) | -2.11
64 | Cc1cnn(CCC(=O)N2CCN(C(=O)C3CC3)[C@@H]3CS(=O)(=O)C[C@@H]32)c1 | -5.71
65 | Cc1ccc(C(=O)N2CCC(C(F)(F)F)CC2)cc1N1CCNC1=O | 4.91
66 | CCn1nc(C(=O)N2CCNCC2C(=O)Nc2ccc(C)nc2)cc1C (centres undefined) | 3.8

Row | Compound | cytotoxicity at 70.5 h [%]
67 | Fc1ccc(N2CCCN(c3ccc(Cn4ccnc4)cn3)CC2)cc1 | 2.18
68 | COC(=O)[C@@H]1C[C@H](NC(=O)c2cc(=O)[nH]c3ccc(C)cc23)CN1C | -13
69 | O=C(c1ccccn1)N1CCc2c(nc(-c3ccncc3)[nH]c2=O)C1 | -6.64
70 | CN(CC(O)CO)C(=O)c1coc(COc2cccc(F)c2)n1 (centres undefined) | 8.53
71 | CN1CCC(N2CCCC(C(=O)N3Cc4ccccc4C3)C2)CC1 (centres undefined) | -14.7
72 | CNc1ccc(C)cc1C(=O)N1CCCC2(CCNC2)C1 (centres undefined) | -8.09
73 | O=C1O[C@@H]2CN(Cc3cccnc3)C[C@@H]2N1CCCN1CCOCC1 | -1.95
74 | COCC(=O)N1C[C@H]2CNC[C@@]2(C(=O)NCc2cc(C)n[nH]2)C1 | -5.27
75 | COc1cc(-c2nc3c([nH]2)CCCNC3=O)ccc1O | 5.51
76 | COc1nc2c(cc1C(=O)NCCCc1nnc(N)s1)CCC2 | -1.23
77 | CN(CC1CCCCO1)c1nc2c(cc1C(N)=O)CCC2 (centres undefined) | -8.46
78 | O=C(O)[C@@H]1CN(C2CCCC2)C[C@H]1C1CC1 | -8.02
79 | CN1CCN(Cc2noc(-c3cc(-c4ccccc4F)n[nH]3)n2)CC1 | 17.5
80 | Cc1c[nH]c(C(=O)N2CCC(c3nnc(CN(C)CCO)n3C)CC2)c1 | 4.25
81 | COc1ccc(F)c(-c2ncccc2NC(=O)C(C)C)c1 | 6.17
82 | CCc1cc(C(=O)NCC2CCN(Cc3ccncc3)CC2)on1 | -9.67
83 | OC1(CN2CCCC2)CCCN(Cc2cnc(-c3ccccc3)nc2)C1 (centres undefined) | 31.4
84 | CN(Cc1cnn(C)c1)C1CCN(c2cccc(-c3cscn3)c2)CC1 | -2.02
85 | Cc1nc(CCNC(=O)C(N)c2c(C)n[nH]c2C)sc1C (centres undefined) | -13.1
86 | O=C(Cc1cccnc1)NC1CCCN(CCCc2ccccc2)C1 (centres undefined) | -8.8
87 | CC(=O)NC1CCN(c2cc(C3CCNCC3)nc(C)n2)C1 (centres undefined) | -6.6
88 | CN(C)C(=O)NCC(=O)N1CCCC2(CCC(=O)N(CC3CC3)C2)C1 (centres undefined) | -13.6

Row | Compound | cytotoxicity at 70.5 h [%]
89 | O=C(c1c[nH]c(=O)c(Cl)c1)N1C[C@@H]2CC[C@H](C1)N(CC1CCC1)C2 | 19.9
90 | O=C(CC1CCc2ccccc21)N1CCC(C(=O)O)(n2ccnc2)CC1 (centres undefined) | 22.5
91 | N[C@H]1CN(C(=O)CCc2ccccn2)C[C@@H]1c1ccccc1 | 4.91
92 | COc1ccc(CN2CCN(c3nccnc3OC)CC2=O)cc1 | -4.78
93 | CCn1c(CN2CCCC2)nnc1C1CCN(Cc2cc(C)no2)CC1 | -6.8
94 | O=C1OCCN1Cc1nc(C2(c3ccc(F)cc3)CCOC2)no1 (centres undefined) | -6.4
95 | O=C1C[C@H]2CC[C@@H](CN1)N2C(=O)CCc1ccc2c(c1)OCO2 | -12.8
96 | c1ccc(CCCn2cc(-c3nc(CN4CCOCC4)no3)nn2)cc1 | -15
97 | COc1ccccc1OC1CCN(C(=O)CCCN2CCOCC2)CC1 | -9.29
98 | O=C(O)c1cc(-c2ccoc2)cc(S(=O)(=O)NC2CC2)c1 | -6.76
99 | Cc1ccc(CN2CCC3(CCCN(Cc4ccc(F)c(F)c4)C3)C2)o1 (centres undefined) | 0.359
100 | CCN1CC(C(=O)N2CC(Oc3ccccc3Cl)C2)CCC1=O (centres undefined) | -1.72
101 | CCNC(=O)N1CCC(Cc2cccc(C(N)=O)c2)C1 (centres undefined) | -5.09
102 | CC(C)(CN1CCC(Cc2ccc(C(=O)O)cc2)C1)N1CCOCC1 (centres undefined) | -12.2
103 | COC(=O)c1ccccc1C(=O)N(CCN(C)C)Cc1sccc1C | -7.74
104 | Cc1cccc2c1nc(CCO)n2-c1ccc(N)nc1 | -8.34
105 | Cc1nc(-c2cc(Cl)cc3c2OC(CN)C3)c[nH]1 (centres undefined) | 11.1
106 | Cc1cc(C)n(C2CN(C(=O)Cn3c(=O)c(C)nc4ccccc43)C2)n1 | 30
107 | Cc1cc(N2CCCC(N(C)C)C2)n2nccc2n1 (centres undefined) | 9.89
108 | CCN1CCCC(C)(C(=O)NCCc2nnc(C)[nH]2)C1 (centres undefined) | -3.07
109 | CC(C1CCN(Cc2cnc(-c3cccs3)nc2)CC1)N(C)C (centres undefined) | 28.9
